Where a name gives a salt, the structure may show the parent alone.
Assays:
heart rate [1] = assay: Effect on heart rate in anesthetized dogs (Table II); assay type: in vivo
heart rate [2] = assay: Effect on heart rate in anesthetized cats (Table I); assay type: in vivo
[3] = LD50 in mice, observation time of 14 days; details: mouse, in vivo, iv, observation time of 14 days
Source text: Additionally, it should be noted that at all dosage levels the test compounds were tolerated very well and produced no toxic side-effects.

SMILES | Decrease in heart rate (heart rate [1]; 0.25 mg/kg i.v.) [beats/minute] | Duration of Effective action (heart rate [1]; 0.25 mg/kg i.v.) [min] | Decrease in heart rate (heart rate [1]; 1.0 mg/kg i.v.) [beats/minute] | Duration of Effective action (heart rate [1]; 1.0 mg/kg i.v.) [min] | Decrease in heart rate (heart rate [2]; 0.5 mg/kg i.v.) [beats/minute] | Duration of Effective action (heart rate [2]; 0.5 mg/kg i.v.) [min] | Decrease in heart rate (heart rate [2]; 1.0 mg/kg i.v.) [beats/minute] | Duration of Effective action (heart rate [2]; 1.0 mg/kg i.v.) [min] | Decrease in heart rate (heart rate [2]; 2.0 mg/kg i.v.) [beats/minute] | Duration of Effective action (heart rate [2]; 2.0 mg/kg i.v.) [min] | other results
COc1ccc(CCN(C)CCCn2nc(C)c3cc(OC)c(OC)cc3c2=O)cc1OC.Cl [A, 1-[4-methyl-6,7-dimethoxy-1(2H)-phthalazinone-2-yl]-3-[N-methyl-N-(2-(3,4-dimethoxyphenyl)-ethyl)-amino]-propane hydrochloride] | -10 | 17 | -16 | 24 | -16 | > 50 | -23 | > 70 | -37 | > 70 | Decrease in heart rate (heart rate [1]; 0.5 mg/kg i.v.): -12 beats/minute; Duration of Effective action (heart rate [1]; 0.5 mg/kg i.v.): 15 min; Decrease in heart rate (heart rate [2]; 2.0 mg/kg i.d.): -25 beats/minute; Duration of Effective action (heart rate [2]; 2.0 mg/kg i.d.): > 74 min; Decrease in heart rate (heart rate [2]; 4.0 mg/kg i.d.): -34 beats/minute; Duration of Effective action (heart rate [2]; 4.0 mg/kg i.d.): > 60 min; Decrease in heart rate (heart rate [2]; 10.0 mg/kg i.d.): -41 beats/minute; Duration of Effective action (heart rate [2]; 10.0 mg/kg i.d.): > 50 min; LD50 at 336 h [3]: 63 mg/kg
COc1ccc(CCN(C)CCCn2nc(C)c3cc(OC)c(OC)cc3c2=O)cc1.Cl [B, 1-[4-methyl-6,7-dimethoxy-1(2H)-phthalazinone-2-yl]-3-[N-methyl-N-(2-(4-methoxyphenyl)-ethyl)-amino]-propane hydrochloride] | -6 | 24 | -23 | 46 |  |  |  |  |  |  | 
COc1ccc(CCN(C)CCCn2nc(C(C)C)c3cc(OC)c(OC)cc3c2=O)cc1OC [C, 1-[4-isopropyl-6,7-dimethoxy-1(2H)-phthalizinone-2-yl]-3-[N-methyl-N-(2-(3,4-dimethoxyphenyl)-ethyl)-amino]-propane hydrochloride] |  |  | -10 | 17 |  |  |  |  |  |  | Decrease in heart rate (heart rate [1]; 2.0 mg/kg i.v.): -29 beats/minute; Duration of Effective action (heart rate [1]; 2.0 mg/kg i.v.): 10 min
COc1ccc(CCN(C)CCCn2ncc3cc(OC)c(OC)cc3c2=O)cc1.Cl [D, 1-[6,7-dimethoxy-1(2H)-phthalazinone-2-yl]-3-[N-methyl-N-(2-(4-methoxyphenyl)-ethyl)-amino]-propane hydrochloride] |  |  |  |  | -6 | 10 | -13 | 25 | -14 | 25 | 
COc1ccc(CCN(C)CCn2nc(C)c3cc(OC)c(OC)cc3c2=O)cc1OC [E, 1-[4-methyl-6,7-dimethoxy-1(2H)-phthalizinone-2-yl]-3-[N-methyl-N-(2-(3,4-dimethoxyphenyl)-ethyl)-amino]-ethane hydrochloride] |  |  |  |  |  |  | -10 | 9 | -13 | 10 | 

From patent US4134980A, “Phenylalkylamino-alkyl derivatives of quinazolinone and phthalazinone” (Boehringer Ingelheim GmbH, priority 1976, dated 1979)
